In PubChem BioAssay AID2060615 (Molecular Pharmacology Branch, DTP, NCI, 2025):

Test system: 496974-208-R-J2-PDC complex spheroids, growth % test/control
Experiment: Anticancer human tumor 496974-208-R-J2-PDC patient-derived pancreatic carcinoma cell line growth inhibition [CLK]
Conditions: for IC50: curve of first compound; for viability, T/C: stronger effect = lower value
In short: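 Patient-derived tumor cells grown as complex spheroids with HUVEC endothelial cells and mesenchymal stem cells, treated with drug combinations. Concentrations descend in half-log steps from near clinical Cmax, or from 10 microM if Cmax unknown.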

[1] = second compound 0.0316 µM, first compound 0.0316 µM
[2] = second compound 0.0316 µM, first compound 0.1 µM
[3] = second compound 0.0316 µM, first compound 0.316 µM
[4] = second compound 0.0316 µM, first compound 1 µM
[5] = second compound 0.0316 µM, first compound 3.16 µM
[6] = second compound 0.0316 µM, first compound 10 µM
[7] = second compound 0.1 µM, first compound 0.0316 µM
[8] = second compound 0.1 µM, first compound 0.1 µM
[9] = second compound 0.1 µM, first compound 0.316 µM
[10] = second compound 0.1 µM, first compound 1 µM
[11] = second compound 0.1 µM, first compound 3.16 µM
[12] = second compound 0.1 µM, first compound 10 µM
[13] = second compound 0.316 µM, first compound 0.0316 µM
[14] = second compound 0.316 µM, first compound 0.1 µM
[15] = second compound 0.316 µM, first compound 0.316 µM
[16] = second compound 0.316 µM, first compound 1 µM
[17] = second compound 0.316 µM, first compound 3.16 µM
[18] = second compound 0.316 µM, first compound 10 µM
[19] = second compound 1 µM, first compound 0.0316 µM
[20] = second compound 1 µM, first compound 0.1 µM
[21] = second compound 1 µM, first compound 0.316 µM
[22] = second compound 1 µM, first compound 1 µM
[23] = second compound 1 µM, first compound 3.16 µM
[24] = second compound 1 µM, first compound 10 µM
[25] = second compound 3.16 µM, first compound 0.0316 µM
[26] = second compound 3.16 µM, first compound 0.1 µM
[27] = second compound 3.16 µM, first compound 0.316 µM
[28] = second compound 3.16 µM, first compound 1 µM
[29] = second compound 3.16 µM, first compound 3.16 µM
[30] = second compound 3.16 µM, first compound 10 µM
[31] = second compound 10 µM, first compound 0.0316 µM
[32] = second compound 10 µM, first compound 0.1 µM
[33] = second compound 10 µM, first compound 0.316 µM
[34] = second compound 10 µM, first compound 1 µM
[35] = second compound 10 µM, first compound 3.16 µM
[36] = second compound 10 µM, first compound 10 µM
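Also: spheroids exposed to the drugs for 7 days before readout.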
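For viability, T/C in this document: 100% = DMSO vehicle control wells.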

**Q.** How did the IC50 (second compound 0.0316 µM) turn out when `COc1ccc([C@@H](O)c2cc(-c3ncnc4cc(N5CCOCC5)ccc34)c(F)cc2Cl)nn1` + CNC(=O)c1ccc(Nc2nc(OC3CCCC3)c3c(-c4ccc5nc(C)oc5c4)c[nH]c3n2)c(OC)c1 was run?
**A.** 7280 nM

**Q.** What about the IC50 (second compound 0.1 µM) of the same compound?
**A.** 6160 nM

**Q.** And the IC50 (second compound 0.316 µM)?
**A.** 2600 nM

**Q.** What about the IC50 (second compound 1 µM) of the same compound?
**A.** 1710 nM

**Q.** What about the IC50 (second compound 3.16 µM) of the same compound?
**A.** 1360 nM

**Q.** And the IC50 (second compound 10 µM)?
**A.** 306 nM

**Q.** What about the viability, T/C [1] of the same compound?
**A.** 102%

**Q.** And the viability, T/C [2]?
**A.** 88.6%

**Q.** And the viability, T/C [3]?
**A.** 89.4%

**Q.** What about the viability, T/C [4] of the same compound?
**A.** 88.7%

**Q.** What about the viability, T/C [5] of the same compound?
**A.** 76.1%

**Q.** What about the viability, T/C [6] of the same compound?
**A.** 40.1%

**Q.** And the viability, T/C [7]?
**A.** 78.5%

**Q.** What about the viability, T/C [8] of the same compound?
**A.** 75.8%

**Q.** What about the viability, T/C [9] of the same compound?
**A.** 83.9%

**Q.** What about the viability, T/C [10] of the same compound?
**A.** 75.9%

**Q.** And the viability, T/C [11]?
**A.** 62.3%

**Q.** And the viability, T/C [12]?
**A.** 41.1%

**Q.** And the viability, T/C [13]?
**A.** 71%

**Q.** And the viability, T/C [14]?
**A.** 85.1%

**Q.** And the viability, T/C [15]?
**A.** 68.9%

**Q.** And the viability, T/C [16]?
**A.** 67.1%

**Q.** And the viability, T/C [17]?
**A.** 46.5%

**Q.** What about the viability, T/C [18] of the same compound?
**A.** 20.4%

**Q.** What about the viability, T/C [19] of the same compound?
**A.** 72%

**Q.** What about the viability, T/C [20] of the same compound?
**A.** 64.2%

**Q.** And the viability, T/C [21]?
**A.** 65.1%

**Q.** What about the viability, T/C [22] of the same compound?
**A.** 58.1%

**Q.** And the viability, T/C [23]?
**A.** 41.6%

**Q.** And the viability, T/C [24]?
**A.** 23.2%

**Q.** And the viability, T/C [25]?
**A.** 62.9%

**Q.** And the viability, T/C [26]?
**A.** 68%

**Q.** And the viability, T/C [27]?
**A.** 59.5%

**Q.** And the viability, T/C [28]?
**A.** 56.3%

**Q.** What about the viability, T/C [29] of the same compound?
**A.** 35.6%

**Q.** What about the viability, T/C [30] of the same compound?
**A.** 17.9%

**Q.** What about the viability, T/C [31] of the same compound?
**A.** 59.7%

**Q.** And the viability, T/C [32]?
**A.** 55.8%

**Q.** And the viability, T/C [33]?
**A.** 50.2%

**Q.** And the viability, T/C [34]?
**A.** 42.9%

**Q.** And the viability, T/C [35]?
**A.** 27.3%

**Q.** And the viability, T/C [36]?
**A.** 14.2%

**Q.** `COc1cccc2c1C(=O)c1c(O)c3c(c(O)c1C2=O)CC(O)(C(=O)CO)CC3OC1CC(N)C(O)C(C)O1` (centres undefined) + CNC(=O)c1ccc(Nc2nc(OC3CCCC3)c3c(-c4ccc5nc(C)oc5c4)c[nH]c3n2)c(OC)c1 was tested. Which IC50 (second compound 0.0316 µM) did it give?
**A.** 185 nM

**Q.** And the IC50 (second compound 0.1 µM)?
**A.** 177 nM

**Q.** What about the IC50 (second compound 0.316 µM) of the same compound?
**A.** 191 nM

**Q.** And the IC50 (second compound 1 µM)?
**A.** 115 nM

**Q.** And the IC50 (second compound 3.16 µM)?
**A.** 103 nM

**Q.** And the IC50 (second compound 10 µM)?
**A.** 53.6 nM

**Q.** And the viability, T/C [1]?
**A.** 70.4%

**Q.** What about the viability, T/C [2] of the same compound?
**A.** 62.2%

**Q.** And the viability, T/C [3]?
**A.** 38.3%

**Q.** What about the viability, T/C [4] of the same compound?
**A.** 3.78%

**Q.** And the viability, T/C [5]?
**A.** 0.62%

**Q.** And the viability, T/C [6]?
**A.** 0.49%

**Q.** And the viability, T/C [7]?
**A.** 67.5%

**Q.** And the viability, T/C [8]?
**A.** 66.1%

**Q.** And the viability, T/C [9]?
**A.** 33.8%

**Q.** And the viability, T/C [10]?
**A.** 3.28%

**Q.** What about the viability, T/C [11] of the same compound?
**A.** 0.77%

**Q.** What about the viability, T/C [12] of the same compound?
**A.** 2.66%

**Q.** What about the viability, T/C [13] of the same compound?
**A.** 68%

**Q.** And the viability, T/C [14]?
**A.** 68.3%

**Q.** What about the viability, T/C [15] of the same compound?
**A.** 36.2%

**Q.** And the viability, T/C [16]?
**A.** 3.12%

**Q.** What about the viability, T/C [17] of the same compound?
**A.** 0.68%

**Q.** What about the viability, T/C [18] of the same compound?
**A.** 0.3%

**Q.** What about the viability, T/C [19] of the same compound?
**A.** 68%

**Q.** What about the viability, T/C [20] of the same compound?
**A.** 52.9%

**Q.** What about the viability, T/C [21] of the same compound?
**A.** 22.5%

**Q.** What about the viability, T/C [22] of the same compound?
**A.** 1.15%

**Q.** What about the viability, T/C [23] of the same compound?
**A.** 2.86%

**Q.** What about the viability, T/C [24] of the same compound?
**A.** 3.97%

**Q.** And the viability, T/C [25]?
**A.** 57.9%

**Q.** What about the viability, T/C [26] of the same compound?
**A.** 50.7%

**Q.** And the viability, T/C [27]?
**A.** 18.4%

**Q.** What about the viability, T/C [28] of the same compound?
**A.** 1.62%

**Q.** What about the viability, T/C [29] of the same compound?
**A.** 0.55%

**Q.** And the viability, T/C [30]?
**A.** 0.42%

**Q.** What about the viability, T/C [31] of the same compound?
**A.** 57.8%

**Q.** What about the viability, T/C [32] of the same compound?
**A.** 40.5%

**Q.** And the viability, T/C [33]?
**A.** 16.8%

**Q.** What about the viability, T/C [34] of the same compound?
**A.** 1.34%

**Q.** What about the viability, T/C [35] of the same compound?
**A.** 0.84%

**Q.** What about the viability, T/C [36] of the same compound?
**A.** 0.85%
